Laboratory results as given in patent US9714213B2, “4-aminomethylbenzoic acid derivative” (TOA EIYO LTD., priority 2013, dated 2017).
Read-outs that look alike come from different tables or passages of the source.

Columns and labels:
[1] = system: rat ventral aorta; assay: Blood vessel relaxation activity, phenylephrine-contracted rat ventral aorta ring specimen; settings: relaxation of 1 μmol/L phenylephrine contraction; EC50 without ODQ / EC50 with 10 μmol/L ODQ
Experimental: A representative compound of the present invention was assayed for blood vessel relaxation activity according to the Test Example described below. In the assay, a rat (male, SD) was phlebotomized from the upper part of the heart under pentobarbital (30 mg/kg) anesthesia, and the ventral aorta was extracted. The connective tissue adhering around the blood vessel in the ventral aorta was removed in an ice-cooled Krebs-Henseleit solution (KH solution) (118 mmol/L sodium chloride, 4.7 mmol/L potassium chloride, 1.2 mmol/L magnesium sulfate, 1.2 mmol/L potassium dihydrogenphosphate, 25 mmol/L sodium hydrogen carbonate, 2.5 mmol/L calcium chloride and 10 mmol/L glucose, pH 7.4). Then, a ring specimen of 2 mm length was prepared, and fixed in 5 mL organ bath filled with the KH solution. The KH solution was maintained at 37° C., and a mixed gas of 95% O2 and 5% CO2 was ventilated. The specimen was stabilized with 1 g of the resting tension for 1 hour. In the meantime, the KH solution was exchanged twice. The tension of the specimen was recorded with a multichannel recorder through a pickup and an amplifier. After stabilization of the specimen, contraction was induced with 1 μmol/L phenylephrine (Phe), and cumulative administration of each compound (0.001, 0.01, 0.03, 0.1, 0.3, 1, 3, 10, 30, 100, 1000, 10000 nmol/L) was carried out. In the case of evaluation at the time of containing ODQ, 10 μmol/L ODQ was added 10 minutes before administration of Phe, and similar evaluation was performed.
EC50 value was calculated by Four-parameter Logistic Model with Assay Explorer (Accelrys, Inc.). Meanwhile, the solution of the test compound was prepared by dissolving the compound in DMSO to prepare solutions having the concentration of each test compound 1000 times higher than the final concentration.

[2] = biological target: T1, human sGC (Homo sapiens, UniProt Q02153); assay: Maximum effect of sGC activation (intracellular Ca2+, Fura2-AM) in CHO-K1 cells stably expressing human sGC and mouse CNGA2; assay type: cell-based; settings: increase rate of sGC activity vs DMSO control, test compound 10 μmol/L
T1 construct: expressed in transfected cells; host or cells: CHO-K1 (Chinese hamster ovary) cells
T1 sequence (Q02153 1-619): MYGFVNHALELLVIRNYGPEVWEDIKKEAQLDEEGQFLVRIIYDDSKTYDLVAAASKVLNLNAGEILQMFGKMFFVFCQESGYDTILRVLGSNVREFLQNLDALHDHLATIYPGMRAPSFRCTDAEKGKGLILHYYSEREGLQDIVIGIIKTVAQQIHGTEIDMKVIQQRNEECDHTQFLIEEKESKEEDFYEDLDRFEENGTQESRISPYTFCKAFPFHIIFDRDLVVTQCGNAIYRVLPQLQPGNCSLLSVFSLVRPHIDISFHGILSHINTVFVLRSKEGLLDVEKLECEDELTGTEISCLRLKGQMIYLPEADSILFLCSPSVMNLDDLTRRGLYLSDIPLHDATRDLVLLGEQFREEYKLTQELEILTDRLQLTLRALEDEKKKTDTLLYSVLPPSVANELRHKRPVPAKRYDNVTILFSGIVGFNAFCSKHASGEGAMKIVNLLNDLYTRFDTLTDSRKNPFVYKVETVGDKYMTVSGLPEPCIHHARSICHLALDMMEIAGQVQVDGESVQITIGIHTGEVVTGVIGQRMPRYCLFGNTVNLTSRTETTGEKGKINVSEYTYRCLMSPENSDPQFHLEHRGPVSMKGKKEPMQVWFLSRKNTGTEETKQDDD
T1 sequence (Q02108 1-690 partner): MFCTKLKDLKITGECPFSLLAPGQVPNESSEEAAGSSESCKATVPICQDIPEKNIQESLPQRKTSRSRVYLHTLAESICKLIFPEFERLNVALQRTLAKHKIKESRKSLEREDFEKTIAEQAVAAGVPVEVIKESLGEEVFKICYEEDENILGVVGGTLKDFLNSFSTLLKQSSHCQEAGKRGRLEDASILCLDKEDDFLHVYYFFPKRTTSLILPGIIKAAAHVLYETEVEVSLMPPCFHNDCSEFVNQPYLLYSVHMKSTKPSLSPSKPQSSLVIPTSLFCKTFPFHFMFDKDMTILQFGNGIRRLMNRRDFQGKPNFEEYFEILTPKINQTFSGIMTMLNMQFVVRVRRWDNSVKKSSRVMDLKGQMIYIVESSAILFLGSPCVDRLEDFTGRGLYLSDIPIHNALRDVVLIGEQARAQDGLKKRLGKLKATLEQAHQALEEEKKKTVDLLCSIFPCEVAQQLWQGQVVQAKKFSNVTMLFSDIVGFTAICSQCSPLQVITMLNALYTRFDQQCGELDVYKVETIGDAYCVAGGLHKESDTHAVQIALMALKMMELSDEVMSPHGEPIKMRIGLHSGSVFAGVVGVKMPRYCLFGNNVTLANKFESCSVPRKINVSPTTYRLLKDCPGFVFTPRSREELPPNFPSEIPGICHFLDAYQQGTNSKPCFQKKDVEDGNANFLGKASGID
Experimental: For the assay, chinese hamster ovary cells (CHO-K1 cells) stably expressing both α and β subunits of human sGC and mouse cyclic nucleotide-gated channel (CNGA2) were used.
The CHO-K1 cells stably expressing human sGC and mouse CNGA2 was cultured at 37° C. on F-12 medium containing 10% (v/v) fetal bovine serum (FBS), penicillin (100 U/mL), streptomycin (100 μg/mL), G418 (250 μg/mL) and Zeocin (250 μg/mL). The cells were suspended in a culture medium, seeded on a 96 well plate, and then cultured at 37° C. for 24 hours. The cells were washed with Assay buffer 1 (140 mmol/L sodium chloride, 5 mmol/L potassium chloride, 0.5 mmol/L magnesium chloride, 0.01 mmol/L calcium chloride, 10 mmol/L glucose, 0.4 mmol/L magnesium sulfate, 10 mmol/L 4-(2-hydroxyethyl)piperazin-1-ylethanesulfonic acid and 125 μmol/L sulfinpyrazone, pH 7.4), and then added a solution containing Fura2-AM, a fluorescent Ca^2+ indicator, in Assay buffer 1 at […] concentration thereto as an indicator solution, and cultured at 37° C. for 60 minutes. The culture medium was removed, and the cells were washed with Assay buffer 1, and then added a solution containing the test compound thereto, and cultured at room temperature for 10 minutes. A plate was placed onto a fluorometer (FlexStation II, Molecular Devices), and the intracellular calcium concentration was determined as the ratio of fluorescent intensity, obtained from measurement using 340 nm and 380 nm as excitation wavelength and 510 nm as detection wavelength.
The solution of the test compound was prepared by dissolving each test compound in DMSO at 10 mmol/L, and then diluting the solution for the test concentration at 10 μmol/L with Assay buffer (140 mmol/L sodium chloride, 5 mmol/L potassium chloride, 0.5 mmol/L magnesium chloride, 1 mmol/L calcium chloride, 10 mmol/L glucose, 0.4 mmol/L magnesium sulfate, 10 mmol/L 4-(2-hydroxyethyl)piperazin-1-ylethanesulfonic acid, […] sulfinpyrazone, 100 μmol/L isobutyl methyl xanthine, and 10 μmol/L 1H-[1,2,4]-oxadiazol[4,3-a]quinoxaline-1-one (hereinafter, ODQ), pH 7.4). The evaluation in the absence of ODQ was performed similarly, except that ODQ was not added to Assay buffer 2. As a control solution, a DMSO solution was used instead of the test compound solution.
The activity of the test compound defined as the increase rate of the sGC activity (%) at the time of adding the solution of the test compound with respect to the sGC activity at the time of adding the control solution, was calculated by dividing the fluorescent intensity ratio at the time of adding the test compound by the fluorescent intensity ratio of the control solution, and subtracting the sGC activity at the time of adding the control solution (100%).
If sGC is activated in this assay, intracellular cGMP concentration increases and accordingly intracellular Ca^2+ concentration is increased by opening of CNGA2. Accordingly, sGC activation can be measured as the change of Ca^2+ concentration in the cell. […] Accordingly, it is possible to evaluate maximum sGC activation effect including heme-dependent activation in the absence of ODQ, and also possible to evaluate heme independent sGC activation effect in the presence of ODQ.

[3] = 10 μmol/L ODQ present, read-out: Emax (%) ODQ+ (Heme-independent)
[4] = absence of ODQ, read-out: Emax (%) ODQ− (Heme-dependent)

Row | SMILES | EC50 Ratio (ODQ−/ODQ+) [1] | Emax at 10 µM [2, 3] | Emax at 10 µM [2, 4]
1 | O=C(O)CCCCN(CCc1ccccc1OCc1ccc(CCc2ccccc2)cc1)Cc1ccc(C(=O)O)cc1 [Cinaciguat, reference compound] | 12.4 | – | –
2 | O=C(O)CCCCN(Cc1ccc(C(=O)O)cc1)CC(OCc1ccc(CCc2ccccc2)cc1)c1ccccc1 (stereo not shown) [Example 2, 4-{[N-(4-Carboxybutyl)-N-[2-[4-(2-phenylethyl)benzyloxy]-2-phenylethyl]amino]methyl}benzoic acid] | 3.26 | 102% | 130%
3 | CC(C)(C)c1cccc(COC(CN(CCCCC(=O)O)Cc2ccc(C(=O)O)cc2)c2ccccc2)c1 (stereo not shown) [Example 10, 4-{[N-[2-(3-tert-Butylbenzyloxy)-2-phenylethyl]-N-(4-carboxybutyl)amino]methyl}benzoic acid] | – | 141% | 103%
4 | O=C(O)CCCCCN(Cc1ccc(C(=O)O)cc1)CC(OCc1ccc(CCc2ccccc2)cc1)c1ccccc1 (stereo not shown) [Example 15, 4-{[N-(5-Carboxypentyl)-N-[2-[4-(2-phenylethyl)benzyloxy]-2-phenylethyl]amino]methyl}benzoic acid] | – | 87.7% | 89.1%
5 | CC(C)(CCN(Cc1ccc(C(=O)O)cc1)CC(OCc1ccc(CCc2ccccc2)cc1)c1ccccc1)CC(=O)O (stereo not shown) [Example 18] | – | 129% | 96.2%
6 | O=C(O)CCCCN(Cc1ccc(C(=O)O)cc1)CC(OCc1ccc(CCc2ccccc2)cc1)c1cccc(Cl)c1 (stereo not shown) [Example 22, 4-{[N-(4-Carboxybutyl)-N-[2-(3-chlorophenyl)-2-[4-(2-phenylethyl)benzyloxy]ethyl]amino]methyl}benzoic acid] | – | 115% | 106%
7 | O=C(O)CCCCN(Cc1ccc(C(=O)O)cc1)CC(OCc1ccc(CCc2ccccc2)s1)c1cccc(Cl)c1 (stereo not shown) [Example 24, 4-{[N-(4-Carboxybutyl)-N-[2-(3-chlorophenyl)-2-[5-(2-phenylethyl)thiophen-2-ylmethoxy]ethyl]amino]methyl}benzoic acid] | – | 132% | 150%
8 | N#Cc1cccc([C@H](CN(CCCCC(=O)O)Cc2ccc(C(=O)O)cc2)OCc2ccc(CCc3ccccc3)cc2)c1 [Example 30, (−)-4-{[N-(4-Carboxybutyl)-N-[(2R)-2-(3-cyanophenyl)-2-[4-(2-phenylethyl)benzyloxy]ethyl]amino]methyl}benzoic acid] | – | 129% | 83.4%
9 | CC(C)(C)c1cccc(CO[C@@H](CN(CCCCC(=O)O)Cc2ccc(C(=O)O)cc2)c2cccc(Cl)c2)c1 [Example 34, (−)-4-{[N-[(2R)-2-(3-tert-Butylbenzyloxy)-2-(3-chlorophenyl)ethyl]-N-(4-carboxybutyl)amino]methyl}benzoic acid] | – | 125% | 82.3%
10 | O=C(O)CCCCN(Cc1ccc(C(=O)O)cc1)C[C@H](OCc1ccc(CCC2CCCC2)cc1)c1ccccc1 [Example 39, (−)-4-{[N-(4-Carboxybutyl)-N-[(2R)-2-[4-(2-cyclopentylethyl)benzyloxy]-2-phenylethyl]amino]methyl}benzoic acid] | – | 142% | 148%
11 | O=C(O)CCCCN(Cc1ccc(C(=O)O)cc1)C[C@H](OCc1ccc(CCc2ccc(Cl)cc2)cc1)c1ccccc1 [Example 40, (−)-4-{[N-(4-Carboxybutyl)-N-[(2R)-2-[4-[2-(4-chlorophenyl)ethyl]benzyloxy]-2-phenylethyl]amino]methyl}benzoic acid] | – | 120% | 127%
12 | O=C(O)CCCCN(Cc1ccc(C(=O)O)cc1)C[C@H](OCc1ccc(CCc2ccccc2)s1)c1ccccc1 [Example 43, (−)-4-{[N-(4-Carboxybutyl)-N-[(2R)-2-[5-(2-phenylethyl)thiophen-2-ylmethoxy]-2-phenylethyl]amino]methyl}benzoic acid] | – | 124% | 108%
13 | CC(C)(C)c1cc(CO[C@@H](CN(CCCCC(=O)O)Cc2ccc(C(=O)O)cc2)c2ccccc2)cc(C(C)(C)C)c1 [Example 46, (−)-4-{[N-(4-Carboxybutyl)-N-[(2R)-2-(3,5-di-tert-butylbenzyloxy)-2-phenylethyl]amino]methyl}benzoic acid] | – | 108% | 161%
14 | O=C(O)CCCCN(Cc1ccc(C(=O)O)cc1)CC(OCc1cccc(CCc2ccccc2)c1)c1ccccc1 (stereo not shown) [Example 60, 4-{[N-(4-Carboxybutyl)-N-[2-[3-(2-phenylethyl)benzyloxy]-2-phenylethyl]amino]methyl}benzoic acid] | – | 88.9% | 110%
